Data taken from patent publication US11358965B2, “EGFR dimer disruptors and use of the same” (THE REGENTS OF THE UNIVERSITY OF MICHIGAN, priority 2018, dated 2022).
Like-named read-outs stand apart in the source and are kept apart here.

Assays:
MALME-3M = test: NCI 60 cell line screen, MALME-3M; assay type: cell-based, human; conditions: Melanoma
Method: (§1) The activity of Compound 8C was tested against 60 different human tumor cell lines at the National Cancer Institute, using the standard NCI 60 screening protocol.

cells [1] = test: Cell Titer Blue % cell viable (24 hrs); assay type: cell-based; conditions: 24 h, Conc 3.75 μM
Method: The viability of cells upon treatment was assessed by CellTiter-Blue® reagent following the manufacturer's protocol in RKO, UM10B, UM1, MCR5, and UMCC92 cells. Briefly, 10,000 cells were plated in 96-well plate in quadruplets. One day after seeding, cells were treated with a range of concentrations (0.1 to 30 micromolar). […] Only the viable cells convert the redox dye (reszurin) into a fluorescent product (resofurin). The emission of fluorescence (excitation 560 nm) was measured at […]. The IC50 value was calculated as the mean concentration of compounds required to inhibit cell proliferation as measured by the fluorescence at […] by 50 percent compared to the vehicle-treated controls.

HCC-2998 = test: NCI 60 cell line screen, HCC-2998; assay type: cell-based, human; conditions: Colon Cancer
Method: as §1

purified EGFR = biological target: T1, purified EGFR (Homo sapiens, UniProt P00533); test: Competition with Biotin-Disruptin for purified EGFR; assay type: binding; conditions: 15 minutes at 37° C.
T1 construct: WT-EGFR kinase domain (aa696-1022, active kinase); made in house; host or cells: SF9 insect cells
Method: To determine if Compound 8C competes for the same binding site on EGFR, Biotin-Disruptin-Avidin coupled beads were incubated with purified EGFR in the presence or absence of Compound 8C for 15 minutes at 37° C. The agarose beads were spun down, and the non-specific protein removed by washing in citrate buffer. The bound protein was released in Laemmli buffer and resolved by SDS page.

SK-MEL-28 = test: NCI 60 cell line screen, SK-MEL-28; assay type: cell-based, human; conditions: Melanoma
Method: as §1

[2] = biological target: T2, purified wild-type EGFR kinase domain (Homo sapiens, UniProt P00533); test: Thermal stability assay of purified EGFR; assay type: binding; conditions: 10 μM
T2 construct: WT-EGFR kinase domain (aa696-1022, active kinase); made in house; host or cells: SF9 insect cells
Method: The samples were subjected to heat inactivation (20 to 44° C.) for 3 minutes. The soluble fraction was separated from aggregate by centrifugation at 13,000 RPM at 4° C. for 10 minutes. […] The EGFR band intensity as quantified by ImageJ software and plotted (see FIG. 5B). […] The soluble fraction of EGFR was quantified and plotted as described above (see FIG. 5C).
After cooling, the samples were centrifuged, and the soluble protein fraction was collected and resolved using immunoblotting with anti-EGFR antibodies (see FIG. 6A).

UM1 cells = test: Clonogenic IC50, UM1; assay type: cell-based
[3] = tested on: Ba/F3-AZR cells (L858R+T790M+C797S-EGFR); test: Osimertinib resistant Ba/F3-AZR ascites tumor model; assay type: in vivo, nude mice; conditions: single 30 mg/kg dose (Compound 8C i.p., osimertinib oral), 18 days after tumor cells
786-0 = test: NCI 60 cell line screen, 786-0; assay type: cell-based, human; conditions: Renal Cancer
Method: as §1

UMSCC74B [4] = test: UMSCC74B head and neck tumor model, daily for one week; assay type: in vivo
Method: Efficacy testing of Compound 8C in UMSCC74B, an EGFR driven, aggressive tumor model of the head and neck. Tumor bearing mice were treated with 30 mg/kg dose daily (Monday-Friday) for one week. This dose was selected based on single dose PK profile (see FIG. 8A). This treatment was safe and produced significant tumor growth delay (see FIG. 10).
Nude mice bearing either UMSCC74B ([…]) were treated with (30 mg/kg, daily for one week) or with vehicle (5% DMSO in PBS). Each group had at least 5 mice. Tumor volume and body weight was recorded 3-4 times a week, and change in the average tumor volume with time is plotted. The average loss in body weight during treatment was less than 10%. Error bar represents standard error of the mean.
For the Compound 8C treatment group, day 0 is defined as the first day of treatment. In vehicle control mice, day 0 was defined as the day when the tumor volume was closest to the mean tumor volume in Compound 8C treatment groups on the day of treatment initiation. To assess whether tumor volume growth rates differed by treatment, mixed effect models were fit with random intercept terms at the mouse levels to account for correlated outcomes over time within a tumor and between 2 tumors within a mouse. Monotherapy elicited a significant reduction in tumor growth rate after one week of dosing (see FIG. 10).

HCC827-AZR = test: Clonogenic survival assay, HCC827-AZR; assay type: cell-based; conditions: read-out: IC50 and IC90
UMSCC74B [5] = test: UMSCC74B xenografts, oral gavage twice weekly; assay type: in vivo, mouse; conditions: 30 mg/kg, vs untreated and cetuximab controls
Method: Mouse xenographs of UMSCC74B, a head and neck tumor cell line, were treated with Compound 8C via oral gavage (30 mg/kg body weight, twice weekly).

MCF7 = test: NCI 60 cell line screen, MCF7; assay type: cell-based, human; conditions: Breast Cancer
Method: as §1

[6] = tested on: PanIn (Pancreatic Intraepithelial Neoplasia); test: Pancreatic tumor model (KC mice), PanIn; assay type: in vivo; conditions: oral gavage, 30 mg/kg body weight, daily
Method: 6-week old KC mice were treated with Compound 8C via oral gavage (30 mg/kg body weight, daily).

[7] = Pharmacokinetics in tumor and plasma, NCI-H1975 xenograft mice; assay type: in vivo, nude mice; conditions: for half-life: nude, mouse, ip
Method: The IC50 and IC90 for PC9-AZR, and HCC827-AZR, range from ˜1.5 to ˜4 μM (see FIG. 7A). It is interesting to note that the peak plasma concentration was 5.4±1.5 μM for 30 minutes. […] Prolonged drug accumulation in tumors despite rapid systemic clearance is ideal for therapeutic use. The data at the 24 hour time point indicate that the agent may be suitable for daily administration. After observing selective accumulation of Compound 8C in tumors injected i.p., it was determined if Compound 8C is orally available. For oral administration, Compound 8C was formulated in 20% tween 80 in PBS (v/v) after brief sonication. Mice received 100 mg/kg by oral gavage. The concentrations of Compound 8C in tumor and plasma samples at 7 hours, 15 hours and 24 hours were determined and are plotted in FIG. 8B.
For intraperitoneal injection Compound 8C was formulated at 10 mg/mL in PBS with 5% DMSO by adjusting the pH to 5.5. For oral administration, a homogenous suspension was prepared in 20% tween 80 upon brief sonication. Initially, a single 100 mg/kg dose of Compound 8C was given i.p. (FIG. 8A) or gavaged into nude mice bearing human NCI-H1975 tumor xenografts (>150 mm3) (FIG. 8B). Mice were euthanized at time 0, 30 minutes, 1 hour, 3 hours, 7 hours, 15 hours, and at 24 hours. Tumor and plasma samples were collected. In case of mice orally gavaged, plasma and tumor samples were collected only at 7 hours, 15 hours and at 24 hours. The concentration of Compound 8C in plasma and tumor was determined and the resulting data are plotted in terms of molar concentration.

K-562 = test: NCI 60 cell line screen, K-562; assay type: cell-based, human; conditions: Leukemia
Method: as §1

cells [8] = test: Clonogenic cellular assay; assay type: cell-based

T1 sequence (P00533 696-1022): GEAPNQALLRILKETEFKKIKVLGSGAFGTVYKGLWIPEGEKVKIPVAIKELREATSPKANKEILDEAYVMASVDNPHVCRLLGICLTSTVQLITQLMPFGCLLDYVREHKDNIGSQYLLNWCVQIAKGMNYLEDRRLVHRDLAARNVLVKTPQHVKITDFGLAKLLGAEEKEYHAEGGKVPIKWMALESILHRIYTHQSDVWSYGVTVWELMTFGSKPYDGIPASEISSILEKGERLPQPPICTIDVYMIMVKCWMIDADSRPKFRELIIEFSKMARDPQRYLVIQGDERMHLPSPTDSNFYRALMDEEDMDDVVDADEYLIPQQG
T2 sequence (P00533 696-1022): as above

## CN1CCC2(CC1)N=C(SCC(=O)Nc1cnc3ccccc3c1)C(c1ccc(Br)cc1)=N2 [Compound 8C, 2-((3-(4-bromophenyl)-8-methyl-1,4,8-triazaspiro[4.5]deca-1,3-dien-2-yl)thio)-N-(quinolin-3-yl)acetamide]
MALME-3M
  Percent Growth: −75.5%
Cells [1]
  viability at 3.75 µM: 68%
HCC-2998
  Percent Growth: −51.3%
Purified EGFR
  inhibition of Disruptin-EGFR binding: Competitive inhibition
SK-MEL-28
  Percent Growth: −70.1%
[2]
  effect on melting curve / melting temperature of purified WT-EGFR: shifts the melting curve
UM1 cells
  IC50: 0.5 µM
[3]
  survival: prolonged life
786-0
  Percent Growth: −81.7%
UMSCC74B [4]; 30 mg/kg dose daily (Monday-Friday) for one week
  safety of treatment: safe
UMSCC74B [4]; 30 mg/kg, daily for one week
  average loss in body weight during treatment: less than 10%
UMSCC74B [4]; 30 mg/kg, daily for one week, vs time-matched control (p=0.013) and overall control (p<0.001)
  tumor growth rates: significantly lower
HCC827-AZR
  IC50: 1500 to 4000 nM
UMSCC74B [5]
  tumor volume: significantly reduced tumor volume
MCF7
  Percent Growth: −42.7%
[6]
  propensity for developing PanIn: significantly reduced propensity
[7]; 100 mg/kg i.p., single dose, for 30 minutes
  peak plasma concentration: 5.4 ± 1.5 µM
[7]; 100 mg/kg i.p., single dose, for ≥7 hours
  peak concentration achieved in the tumor: 69.7 ± 15.68 µM
[7]; i.p. injection
  tumor accumulation: selectively accumulates in the tumor
[7]; plasma, 100 mg/kg i.p., single dose, read-out: plasma half-life (converted)
  half-life: 7.96 h
[7]; tumor, 100 mg/kg i.p., single dose, read-out: half-life in the tumor
  half-life: > 24 h
K-562
  Percent Growth: −61.5%
Cells [8]
  IC50 in the clonogenic cellular assay: sub-micromolar
